Regarding `CC1(C)CC(NC(=O)CCC(C)(c2ccc(O)c(C(C)(C)C)c2)c2ccc(O)c(C(C)(C)C)c2)CC(C)(C)N1`, the melting point came to 110 °C.

As to `Cc1ccc(Sc2ccc(N)cc2)cc1`, the melting point was 76 °C.

For the compound `CCC(C)C(OCc1ccccc1)C1C(C(=O)NCC(=O)O)NC(C2CCCCC2)C1[N+](=O)[O-]` (stereo not drawn), the melting point was 177 to 179 °C.

`O=C(c1ccccc1)N1CC(=O)N(CCc2ccccc2)C(=O)C1` had a melting point of 102 °C.

`O=C(NC1CCCN(Cc2ccccc2)C1)c1ccc2[nH]ncc2c1` (stereo not drawn) registered a melting point of 203 to 204 °C.

The compound `Cc1c(-c2ccccc2)oc2c(CN=[N+]=[N-])cccc2c1=O` registered a melting point of 132 to 134 °C.

For the compound `CCC(C)CNC(=O)C(CC(O)C(CC(C)C)NC(=O)C(Cc1cscn1)NC(=O)C(Cc1cccc2ccccc12)NC(=O)OC(C)(C)C)C(C)(C)O` (mixture of isomers), the melting point was 90 to 92 °C.

`CC(=O)N1CCC(C)(C)c2cccc(CCCN3CCN(c4nsc5ccccc45)CC3)c21`: the melting point came out at 109 °C.

Compound `Cn1c(COc2ccc(CC3SC(=O)NC3=O)cc2)nc2ccc(Oc3ccccn3)cc21` (stereo not drawn) displayed a melting point of 200 to 210 °C.

`CC(C)(C(=O)O)c1oc2cccc-2cc1-c1ccccc1` had a melting point of 169 to 171 °C.

`CC(C)Cn1c(CNC(=O)OC(C)(C)C)c(-c2ccccc2)c2cc(-c3nc(C(=O)O)cs3)ccc2c1=O` registered a melting point of 213 to 214 °C.

The compound `Cc1c2c(c(C)c3c1NC(C)C3)OC(C)(C)C2` (stereo not drawn) came in with a melting point of 87 to 88 °C.

`O=C1c2cc(OC(F)F)ccc2CN1c1ccc2c(c1)CCC2`: the melting point lay within 137 to 139 °C.

`CCC(=O)NCCc1c(-c2ccccc2)nn2ccc3c(c12)CCO3` displayed a melting point of 169 to 170 °C.

On to `NS(=O)(=O)c1cccc(-c2noc(-c3cnn4c(C5CC5)cc(-c5ccc(C(F)(F)F)cc5)nc34)n2)c1`, for which the melting point was determined as 277 °C.

Compound `COC(=O)c1cc(O)n[nH]1` displayed a melting point of 229 to 231 °C.

Take `CCn1c(C(F)(F)F)nn(-c2cc(N)c(C(N)=S)cc2F)c1=O`: the melting point is 161 °C.

For the compound `CC(C)(C)OC(=O)NC(CC(=O)Nc1n[nH]c(=S)s1)c1ccccc1` (stereo not drawn), the melting point was in the range of 248 to 249 °C.

As to `CCC(COc1cccc(COc2cccc3cccnc23)c1)OC(C)=O` (stereo not drawn), the melting point lay in the range of 77 to 79 °C.

As for `CCc1nc(N)nc(N)c1N1CCN(c2ccc(C#N)cc2)CC1`, the melting point was more than 310 °C.

`CC(C)c1nc(C(C)C)c(CCCCO)c(-c2ccc(F)cc2)c1CO` displayed a melting point of 135 to 137 °C.

In turn, `CCCc1cc(Nc2ccn(-c3ccccc3)n2)cc(CCC)c1OC(C)=O` showed a melting point of 71 to 74 °C.

`CC(C)(C)NS(=O)(=O)c1c(C(=O)O)sc2ccccc12` returned a melting point of 180 °C.

Regarding `CC(C)C(C)C=CC(C)C1CCC2C3CC(=O)C4CC=CCC4(C)C3CCC12C` (stereo not drawn), the melting point was in the range of 118 to 120 °C.

For the compound `CC(=O)N(CCCCN1C(=O)c2ccccc2C1=O)c1ccccc1`, the melting point was in the range of 83 to 84 °C.

`O=C(O)c1cccc(C=CC(=O)c2ccccc2)c1` displayed a melting point of 198 to 201 °C.

As to `COC(=O)c1nc(Cl)c(F)c(N)c1I`, the melting point lay in the range of 149 to 151 °C.

Compound `N#Cc1ccc(N(c2ccccc2)n2ccnc2)cc1` came in with a melting point of 162 °C.

The compound `Cc1ccc(C(=O)C2=C(O)C(=O)N(c3ccc(C)nn3)C2c2ccc(C(C)C)cc2)cc1` (stereo not drawn) returned a melting point of 279 °C.

`CN(c1ccc(Cl)cc1)C1CCN(c2ccc(OC[C@@]3(C)Cn4cc([N+](=O)[O-])nc4O3)cc2)CC1` showed a melting point of 174 to 175 °C.

As to `CCOC(=O)c1c(O)c2cnc(-c3ccccc3)nc2n(CCOC)c1=O`, the melting point is 178 to 179 °C.

For `COc1cc(/C=C/c2ccc(C)cc2)cc(OC)c1OC`, the melting point lay within 125 to 127 °C.

In the case of `O=C1c2ccccc2C(=O)N1CCCSc1ncccn1`, the melting point was in the range of 81.5 to 82.5 °C.

As for `NCc1[nH]c2ccc(Cl)cc2c1-c1c(F)cccc1F`, the melting point fell in the range of 199 to 200 °C.

`COC(=O)c1ccc(-c2ccc3nnn(Cc4cc5cccnc5cc4F)c3n2)cc1F`: the melting point is 213 to 215 °C.

Turning to `Oc1ccc(-n2nc3ccc(Cl)cc3n2)c(O)c1`, the melting point was 188 to 189 °C.

Regarding `O=c1[nH]c2cc(Cl)c(Cl)cc2n1[C@@H]1C[C@H](CO)[C@@H](O)[C@H]1O`, the melting point fell in the range of 219 to 220 °C.

As to `O=c1[nH]c2c(n3ccnc13)Cc1ccccc1-2`, the melting point stood at 350 °C.

In turn, `CN(C)C(=O)OCCn1nc(-c2cc(C(C)(C)C)c(O)c(C(C)(C)C)c2)c2cccnc21` showed a melting point of 99 to 101 °C.

Regarding `N#CCCNC(=O)C1=CC(CF)(CF)Oc2ccc(C#N)cc21`, the melting point lay in the range of 170 to 172 °C.

The compound `COC(=O)NC(=O)Nc1nc2c(C)cccc2s1` yielded a melting point of 272 to 280 °C.

Compound `CC(=O)OC1CC2=CCC3C4CCCC4(C)CCC3C2(C)C(OC(C)=O)C1` (stereo not drawn) had a melting point of 163 to 165 °C.

Consider `COc1ccc(-c2nc(N)nc(NC(=O)c3cccnc3)n2)c2ccccc12`, for which the melting point lay in the range of 208 to 209 °C.

The compound `CC(=O)N1CCCc2ccc(C(C)NC(=O)C=Cc3ccccc3)cc21` (stereo not drawn) yielded a melting point of 65 to 68 °C.

As for `CNc1c(F)cc2c(=O)c(C(=O)O)cn(-c3ccc(F)c(N)c3)c2c1Cl`, the melting point lay in the range of 162 to 166 °C.

Consider `CCOC(=O)C=Cc1ccc(N)c(O)c1`, for which the melting point was 134 to 135 °C.

As for `O=C1C(=NOCCO)Oc2ccccc21`, the melting point lay in the range of 110 to 111 °C.

The compound `COC(=O)C(CNC(C)=O)c1cccc2ccc(OC)cc12` (stereo not drawn) returned a melting point of 118 to 120 °C.

Compound `COc1cc(C(O)(C(F)(F)F)C(F)(F)F)cc(C)c1OCC(=O)O` had a melting point of 111 to 113 °C.

For `Cc1c(CCC(=O)O)n(Cc2ccc(-n3ccnc3)cc2)c2ccc(F)cc12`, the melting point turned out to be 222 °C.

In the case of `Cc1c(C=CC=O)c2c(c(C)c1OCc1ccccc1)CCC(C)(C)O2`, the melting point lay within 89 to 99.5 °C.

`COc1ccc2c(c1OCc1ccccc1)CC(C(=O)O)N(C(=O)N(C)c1ccccc1)C2` (racemic) came in with a melting point of 134 to 136 °C.

Regarding `CCOC(=O)NN(C)C(=O)Nc1ccc(OCc2ccc(Cl)cc2)cc1F`, the melting point came out at 108 °C.

With `COc1ccc(C2CCOCC2)c2sc(NC(=O)c3ccnc(CN4CCOCC4)c3)nc12`, the melting point lay within 199 to 201 °C.

`CCOC(=O)c1c(COC(C)=O)cccc1S(N)(=O)=O`: the melting point lay in the range of 98 to 100 °C.

For the compound `COc1cccc(CC(O)C2CCN(CS(N)(=O)=O)CC2)c1OC` (stereo not drawn), the melting point was in the range of 112 to 114 °C.

In turn, `COC(=O)c1ccc2nc3c(nc2c1)SC(C#N)=C(C#N)S3` registered a melting point of 133 to 135 °C.

`COc1c(Cl)ccc2c1C(O)(c1ccccc1Cl)C(=O)N2` (stereo not drawn) yielded a melting point of 228 to 229 °C.

Consider `CC(C)(OCc1nn(Cc2ccccc2)c2ccccc12)C(=O)NNC(N)=O`, for which the melting point is 174 to 175 °C.

Turning to `CCCn1nc(C(F)F)nc1Cc1ccc(-c2ccccc2-c2nnn[nH]2)nc1`, the melting point lay in the range of 176 to 178 °C.

In turn, `Cc1cc(C(=O)Nc2cnccc2C)c2c(C)nn(-c3ccccc3)c2n1` registered a melting point of 227 to 228 °C.

In turn, `COc1ccc2ncc(CC(N)C(=O)O)cc2c1` (stereo not drawn) had a melting point of 246 to 247 °C.

Take `Cc1cc2c(c(C)c1[N+](=O)[O-])OCO2`: the melting point is 75 to 76 °C.

The values above are taken from a melting point compilation (Tetko et al.; mined from patent text by program, amines drawn as free bases though some values may be those of a salt).
